According to patent US20220313651A1, “INHIBITORS OF ZIKA VIRUS INFECTION” (priority 2019, published 2022):

Experiments:
[1] = system: ZIKV human strain R116265; assay: ZIKV vertical transmission in pregnant Ifnar1-/- mice; format: in vivo; conditions: 20 mg/kg i.p.
Experimental: Pregnant mice (at embryonic day (E) 12-14) were i.p. treated with ST087010 (20 mg/kg) or DMSO (control) 12 h before and 6, 24 and 48 after infection with ZIKV human strain R116265 (10^3 PFU/mouse). Viral titers were detected, by plaque assay, in sera (FIG. 9A), placenta (FIG. 9B), fetal brain (FIG. 9C), and amniotic fluid (FIG. 9D) at 5 days post infection (dpi). The data are expressed as mean±s.e.m. of mice in each group (n=5), and significant differences among different groups are shown. The detection limit is 25 PFU/ml (for sera and amniotic fluid), or 25 PFU/g (for placenta and fetal brain). Representative images of morphology of mouse uteri and fetuses at 5 dpi are shown. FIG. 9E depicts E17-19 uteri from pregnant mice challenged at E12-14. Fetal morphology (FIG. 9F) and fetal size (FIG. 9G) were detected. ZIKV or caspase-3 signals were measured in placentas by immunofluorescence staining (FIG. 9H). ZIKV and caspase-3 were stained with anti-ZIKV and anti-active caspase-3 antibodies, respectively. Nuclei were stained with DAPI. Representative images of immunofluorescence staining are shown. Magnification, 63×, and scale bar 10 μm.
ST087010 was evaluated for protection against ZIKV-caused fetal damage and death in pregnant Ifnar1^−/− mice. Briefly, groups of 5 pregnant mice (10- to 12-weeks old, E12-14) were injected intraperitoneally with ST087010 (20 mg/kg of body weight), or DMSO (control) 12 h before and 6, 24 and 48 h after i.p. infection with ZIKV (human strain R116265, 10^3 PFU). Five days post-infection, mice were sacrificed; viral titers were determined using plaque assay in sera, placenta, fetal brain and amniotic fluid, and uteri and fetuses were evaluated for morphological and size changes. Placenta was also assessed for apoptosis and viral replication by immunofluorescence staining.
Immunofluorescence staining was carried out to detect ZIKV and caspase-3 signals in ZIKV-infected mouse tissues. […] The slides were analyzed using a confocal microscope (Zeiss LSM 880) and ZEN software, and fluorescent signals were quantified by ImageJ software. […]

[2] = target: T1, binding between ZIKV EDIII and EDI/II-specific mAb ZKA78 (Zika virus, UniProt Q32ZE1, D679E/I627V/V603I/V629A); assay: ELISA competition, control EDI/II-specific mAb ZKA78; conditions: ZKA78 does not bind EDIII
T1 construct: human Fc (C)
Experimental: ELISA was also used to determine the ability of ST087010 in inhibition of the binding between ZIKV EDIII and EDIII-specific human mAbs (SMZAb5, ZKA64-LALA, ZV-67, or Z004) or EDI/II-specific human mAb (ZKA78) control. […] The plates were then sequentially incubated with HRP-conjugated anti-human IgG-Fab antibody and TMB substrate, followed by detection of A450 values. Percent inhibition (% inhibition) of compounds was calculated based on the ELISA results, and IC50 was obtained […].

T1 sequence (Q32ZE1 584-695 V603I/I627V/V629A/D679E): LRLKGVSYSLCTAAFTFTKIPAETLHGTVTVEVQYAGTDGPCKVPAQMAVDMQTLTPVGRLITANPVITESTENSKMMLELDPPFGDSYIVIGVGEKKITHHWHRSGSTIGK

Which results are given for `Cc1cc2c(C(C)C)c(O)c(O)c(/C=N/n3c(=O)[nH][nH]c3=O)c2c(O)c1-c1c(C)cc2c(C(C)C)c(O)c(O)c(/C=N/n3c(=O)[nH][nH]c3=O)c2c1O` [ST087010]?
ZIKV+ or caspase-3 signals in placental tissues ([1]; ZIKV R116265, immunofluorescence, vs DMSO): undetectable or diminished; Condition of fetuses and uteri morphology ([1]; pregnant mice E12-14, ZIKV R116265 10^3 PFU, 5 dpi): all in good condition; Viral titers in sera, placenta, fetal brain and amniotic fluid ([1]; pregnant mice E12-14, ZIKV R116265 10^3 PFU, 5 dpi, vs DMSO): significantly reduced; Effect on binding of EDI/II-specific mAb ZKA78 (control) [2]: no observable effect
